Measured values published in patent publication US20190322643A1 (Georgia State University Research Foundation, Inc., priority 2016, published 2019).
Like-named read-outs stand apart in the source and are kept apart here.

How the values were obtained:
[1] = test system: HEK293; test: Toxicity assay (CCK-8) in control non-cancerous cell line; assay type: cell-based
Experimental: (§1) A549, MDA-MB-231, HCT-8, MCF-7, and HEK293 cells were seeded at 8000-10000 cells (100 μl) in white 96-well plates and pre-incubate the plate for 24 h under standard cell culture conditions, respectively. Then the cells were exposed to the different inhibitors with various concentrations for 72 h. Finally, 10 μl of CCK-8 kit solution was added to each well and incubated for 3-4 hours under standard cell culture conditions, and the 96 well plates were measured the absorbance at 450 nm using Perkin-Elmer Wallac Victor ^3V 1420 multi label plate reader (Perkin-Elmer, Wellesley, USA). EC50s were calculated using GraphPad Prizm statistical package with sigmoidal variable slope dose response curve fit.
(§2) Cell anti-proliferation assays were performed to determine the toxicity of these inhibitors. Several cell lines (MDA-MB-231, MCF-7, A549 and HCT-8) were incubated and then treated with varying concentrations of the inhibitors for 72 h, respectively. […] These compounds were further evaluated against the control cell line HEK293 to test their toxicity with a non-cancerous cell line.

[2] = test system: MDA-MB-231; test: Cytotoxicity / anti-proliferation assay (CCK-8), MDA-MB-231; assay type: cell-based; conditions: Homo sapiens
Experimental: as §1, §2

[3] = test system: HDAC; test: Cell based homogenous HDAC assay, Hela; conditions: read-out: IC50-HDAC Hela; Hela cells, mean ± SD of triplicate
Experimental: (§5) After 24 h, 9 μl inhibitors with different concentration were added to the HeLa cells and incubation was continued for 3 h under cell culture conditions. After this treatment period, 10 μl of a 2 mM stock solution of the substrate Boc-K(Ac)-AMC was added into the 96 well plates with Hela cells and inhibitors. […] A549 and K562 cell lines used the same method, respectively. IC50s were calculated using GraphPad Prizm statistical package with sigmoidal variable slope dose response curve fit.
(§6) Boc-K(Ac)-AMC was used as a cell-permeable HDAC substrate, as after deacetylation it is cleaved by trypsin to release the florescent 7-amino-4-methylcoumarin (AMC).

[4] = test system: HCT-8; test: Cytotoxicity / anti-proliferation assay (CCK-8), HCT-8; assay type: cell-based; conditions: Homo sapiens, 72 h, CCK-8 kit
Experimental: (§3) Then the cells were exposed to the different inhibitors with various concentrations for 72 h. […] EC50s were calculated using GraphPad Prizm statistical package with sigmoidal variable slope dose response curve fit.
(§4) Cell anti-proliferation assays were performed to determine the toxicity of these inhibitors. […] These compounds were further evaluated against the control cell line HEK293 to test their toxicity with a non-cancerous cell line.

[5] = biological target: T1, G9a (Homo sapiens, UniProt Q96KQ7); test: H3K9Me2 cell immunofluorescence in-cell Western (ICW) assay; assay type: cell-based; conditions: MDA-MB-231 cell line, 48 h
T1 construct: endogenous in cells; host or cells: MDA-MB-231
T1 sequence (Q96KQ7 1-1210): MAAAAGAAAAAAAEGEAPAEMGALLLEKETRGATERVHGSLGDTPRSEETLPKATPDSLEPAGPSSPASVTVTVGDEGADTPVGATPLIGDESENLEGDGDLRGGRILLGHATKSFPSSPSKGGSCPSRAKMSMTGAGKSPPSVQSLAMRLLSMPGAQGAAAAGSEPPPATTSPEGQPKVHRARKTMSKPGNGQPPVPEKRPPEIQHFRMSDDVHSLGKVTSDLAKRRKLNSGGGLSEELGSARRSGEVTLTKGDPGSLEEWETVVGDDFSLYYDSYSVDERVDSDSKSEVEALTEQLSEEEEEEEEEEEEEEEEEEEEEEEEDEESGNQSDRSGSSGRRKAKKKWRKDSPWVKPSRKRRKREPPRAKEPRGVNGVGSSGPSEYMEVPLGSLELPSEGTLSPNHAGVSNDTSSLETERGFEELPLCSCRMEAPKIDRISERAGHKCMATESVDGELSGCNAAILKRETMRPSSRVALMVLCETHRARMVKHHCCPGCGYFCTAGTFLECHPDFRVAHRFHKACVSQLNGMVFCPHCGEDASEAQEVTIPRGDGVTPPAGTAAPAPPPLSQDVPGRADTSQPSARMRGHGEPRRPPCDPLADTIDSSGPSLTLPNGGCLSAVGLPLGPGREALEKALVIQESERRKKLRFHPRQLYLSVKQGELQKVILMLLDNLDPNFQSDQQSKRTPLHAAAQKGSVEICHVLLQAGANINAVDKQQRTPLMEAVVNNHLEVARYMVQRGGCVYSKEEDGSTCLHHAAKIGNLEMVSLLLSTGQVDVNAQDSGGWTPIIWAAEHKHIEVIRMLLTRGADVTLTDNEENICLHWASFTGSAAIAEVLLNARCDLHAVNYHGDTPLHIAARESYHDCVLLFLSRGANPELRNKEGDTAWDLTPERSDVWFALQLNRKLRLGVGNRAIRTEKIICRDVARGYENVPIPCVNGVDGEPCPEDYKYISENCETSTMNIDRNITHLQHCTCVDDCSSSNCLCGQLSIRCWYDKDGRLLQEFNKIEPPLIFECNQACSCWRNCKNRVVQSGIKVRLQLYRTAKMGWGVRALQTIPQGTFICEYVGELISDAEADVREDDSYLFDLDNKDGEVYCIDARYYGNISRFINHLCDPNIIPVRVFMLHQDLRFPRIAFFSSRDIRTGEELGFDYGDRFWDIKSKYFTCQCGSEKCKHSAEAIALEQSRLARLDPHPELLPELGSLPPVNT
Experimental: After the incubation, the media was removed and 100 μl fixation and permeabilization solution (2% formaldehyde in PBS) for fixation was added for 30 min. And then use 200 μl 0.1% Triton X100 in PBS washing solution to wash (allow wash to shake on a plate shaker for 5 minutes). After five washes, cells were blocked for 1 h with 150 μl blocking buffer to each well (1% BSA in PBS) (allow blocking at RT with moderate shaking on a plate shaker). After 1 h, remove the blocking buffer from the blocking step and add primary antibody in blocking buffer to cover the bottom of each well. […] The plates were read on an Odyssey CLX (LiCor) scanner at both 800 nm (H3K9me2 signal) and 700 nm (cell tag 700 stain signal) channels. IC50s were calculated using GraphPad Prizm statistical package with sigmoidal variable slope dose response curve fit.

[6] = test system: HDAC; test: Cell based homogenous HDAC assay, A549; conditions: read-out: IC50-HDAC A549; A549 cells, mean ± SD of triplicate
Experimental: as §5, §6

[7] = biological target: T2, Mouse histone methyltransferase G9a (969-1263) (Mus musculus, UniProt Q9Z148); test: MALDI-TOF methylation study of G9a inhibition; assay type: biochemical; conditions: inhibitors at 5 μM concentration for 30 min
T2 construct: The 6His-sumo mG9a (969-1263) protein was purified using the following procedure; 6His-sumo (cleaved yes); made in house; host or cells: Escherichia coli BL21 (DE3)
T2 sequence (Q9Z148 969-1263): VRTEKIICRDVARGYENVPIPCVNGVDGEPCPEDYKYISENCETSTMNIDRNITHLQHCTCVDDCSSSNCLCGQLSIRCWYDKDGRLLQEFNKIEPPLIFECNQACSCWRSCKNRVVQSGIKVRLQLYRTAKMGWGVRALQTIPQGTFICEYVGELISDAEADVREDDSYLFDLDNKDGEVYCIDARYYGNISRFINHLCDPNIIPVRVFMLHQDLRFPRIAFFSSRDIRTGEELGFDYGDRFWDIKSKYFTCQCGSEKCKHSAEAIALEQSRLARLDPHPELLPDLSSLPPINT
Experimental: Mouse histone methyltransferase G9a (969-1263) cDNA was amplified from the cDNA of BALB/c mouse thymus, and the fragment was sub-cloned into a vector with a 6His-sumo tag. […] The 6His-sumo mG9a (969-1263) protein was purified using the following procedure: harvested cell pellet was re-suspended in 20 mM Tris (pH 8.0), 500 mM NaCl, 0.1% β-mercaptoethanol, and 1 mM PMSF. Cells were lysed by sonicating for 15 seconds with 6 second intervals for a total time of 15 minutes on an ice bath. […] The 6His-sumo tag was cleaved from the column by adding Ubiquitin-like-specific protease 1 (ULP-1) at 4° C. for 12 hours. Wash buffer was then run through the Ni^+ column again and the elution buffer collected. Subsequently, advanced protein purification was done by HiTrap Q HP sequential Superdex 200 10/300 GL. Elute of every step was analyzed by SDS PAGE, stained by Coomassie brilliant blue (CBB). […] The reaction was incubated at room temperature for 30 min, and stopped by TFA. 1 μL of the sample was mixed with CHCA matrix and m/z peaks were obtained at reflection positive mode. The results of mass spectrum were analyzed using the Bruker flex analysis software and data processing was carried out as described below. MALDI-TOF based experiments were performed according to the protocol developed by Chang et al. (Nat. Struct. Mol. Biol. 2009, 16, 312-317). MALDI spectra were collected using Bruker flex control software and analyzed by flex analysis. After labelling each cluster peaks of H3K9Me0, H3K9Me1 and H3K9Me2 for all of the tested concentrations, area under the cluster (AUC) were extracted by using the same flex analysis software. % abundance of each peak was calculated by following formula: A=% Abundance of (H3K9Me0)=area of H3K9Me0/(area of H3K9Me0+area of H3K9Me1+area of H3K9Me2) B=% Abundance of (H3K9Me1)=area of H3K9Me1/(area of H3K9Me0+area of H3K9Me1+area of H3K9Me2) C=% Abundance of (H3K9Me2)=area of H3K9Me2/(area of H3K9Me0+area of H3K9Me1+area of H3K9Me2). This was repeated for each spectra (3 multiples for each samples). […] Finally % inhibition was found by subtracting % MA(i) from 100. […] A biochemical assay using MALDI-TOF was used to visualize the effects of the synthesized compounds on G9a enzymatic activity. […] Struct. Mol. Biol. 2009, 16, 312-317).

[8] = test system: A549; test: Cytotoxicity / anti-proliferation assay (CCK-8), A549; assay type: cell-based; conditions: Homo sapiens, 72 h, CCK-8 kit
Experimental: as §3, §4

[9] = test system: HDAC; test: Cell based homogenous HDAC assay, K562; conditions: read-out: IC50-HDAC K562; K562 cells, mean ± SD of triplicate
Experimental: as §5, §6

[10] = alone or as 1:1 mixture, 1-100 μM, read-out: EC50 value

| Compound | IC50 [3] | IC50 [5] | IC50 [6] | inhibition at 5 µM [7] | IC50 [9] | toxicity in normal cell line [1] | EC50 ([2]; 72 h, CCK-8 kit, read-out: EC50 MDA-MB-231) | EC50 [2, 10] | EC50 [4] | EC50 [8] |
| --- | --- | --- | --- | --- | --- | --- | --- | --- | --- | --- |
| O=C(CCCCCCC(=O)Nc1ccccc1)NO [SAHA, N-hydroxy-N′-phenyl-octanediamide] | – | – | – | – | – | toxic | 2.87 ± 0.84 µM | 2.87 ± 0.84 µM | – | – |
| COc1cc2nc(N3CCCN(C)CC3)nc(NC3CCN(Cc4ccccc4)CC3)c2cc1OC.Cl.Cl.Cl [BIX-01294, 2-(hexahydro-4-methyl-1H-1,4-diazepin-1-yl)-6,7-dimethoxy-N-[1-(phenylmethyl)-4-piperidinyl]-4-quinazolinamine trihydrochloride, reference compound] | > 100 µM | – | > 100 µM | 77.7 ± 5.73% | > 100 µM | toxic | – | 2.16 ± 0.88 µM | – | – |
| COc1cc2nc(NCCNC(=O)CCCCC(=O)NO)nc(NC3CCN(C)CC3)c2cc1OC [Compound 6, N1-(2-((6,7-dimethoxy-4-((1-methylpiperidin-4-yl)amino)quinazolin-2-yl)amino)ethyl)-N6-hydroxyadipamide] | > 100 µM | > 100 µM | > 100 µM | 26.6 ± 11.3% | > 100 µM | – | – | – | > 100 µM | > 100 µM |
| COc1cc2c(NC3CCN(C(C)C)CC3)nc(N3CCCN(C)CC3)nc2cc1OCCCCCCC(=O)NO [Compound 26, N-hydroxy-7-((4-((1-isopropylpiperidin-4-yl)amino)-6-methoxy-2-(4-methyl-1,4-diazepan-1-yl)quinazolin-7-yl)oxy)heptanamide] | > 100 µM | 27.4 ± 3.59 µM | > 100 µM | 35.6 ± 0.88% | > 100 µM | – | – | – | > 100 µM | > 100 µM |

Further lines, with some results ahead:

| IC50 [3] | IC50 [5] | IC50 [6] | inhibition at 5 µM [7] | IC50 [9] | Compound | toxicity in normal cell line [1] | EC50 ([2]; 72 h, CCK-8 kit, read-out: EC50 MDA-MB-231) | EC50 [2, 10] | EC50 [4] | EC50 [8] |
| --- | --- | --- | --- | --- | --- | --- | --- | --- | --- | --- |
| > 100 µM | 76.7 ± 0.89 µM | > 100 µM | 19.6 ± 20.9% | > 100 µM | COc1cc2nc(NCCNC(=O)CCCC(=O)NO)nc(NC3CCN(C)CC3)c2cc1OC [Compound 7, N1-(2-((6,7-dimethoxy-4-((1-methylpiperidin-4-yl)amino)quinazolin-2-yl)amino)ethyl)-N5-hydroxyglutaramide] | – | – | – | > 100 µM | > 100 µM |
| > 100 µM | 54.6 ± 3.05 µM | > 100 µM | 15 ± 15.7% | > 100 µM | COc1cc2nc(NCCNC(=O)CCCC(=O)NO)nc(NC3CCN(C(C)C)CC3)c2cc1OC [Compound 7a, N1-hydroxy-N5-(2-((4-((1-isopropylpiperidin-4-yl)amino)-6,7-dimethoxyquinazolin-2-yl)amino)ethyl)glutaramide] | – | – | – | > 100 µM | > 100 µM |
| > 100 µM | 66.6 ± 3.98 µM | > 100 µM | 47.5 ± 9.32% | > 100 µM | COc1cc2nc(NCCNC(=O)CCCCCC(=O)NO)nc(NC3CCN(C(C)C)CC3)c2cc1OC [Compound 5a, N1-hydroxy-N7-(2-((4-((1-isopropylpiperidin-4-yl)amino)-6,7-dimethoxyquinazolin-2-yl)amino)ethyl)heptanediamide] | – | – | – | > 100 µM | > 100 µM |
| > 100 µM | 74.2 ± 1.94 µM | > 100 µM | 11.2 ± 3.68% | > 100 µM | COc1cc2nc(NCCNC(=O)CCCCCCC(=O)NO)nc(NC3CCN(C(C)C)CC3)c2cc1OC [Compound 4a, N1-hydroxy-N8-(2-((4-((1-isopropylpiperidin-4-yl)amino)-6,7-dimethoxyquinazolin-2-yl)amino)ethyl)octanediamide] | – | – | – | > 100 µM | > 100 µM |
